Results on 74 compounds are retold here after patent US6569404B1, “Phase shift colloids as ultrasound contrast agents” (priority 1993, dated 2003).

Where “and” joins values, the source holds several entries; their conditions need not be identical. Identical values can stand only once.

The first data set in a line: Acoustic backscatter: gray scale intensity (videodensity) in water beaker at 37° C., Hewlett Packard 77020 scanner, 5.0 MHz. Conditions: emulsion with Fluorad 170 C; 0.2 mL in 1000 mL water at 37° C.; six seconds; backgrounds 2.9, 3.0, 3.6. How it is done: Two solutions were prepared to simulate the administration to an organism of either a colloidal dispersion of a low boiling liquid or the liquid, neat.
The emulsions contained Fluorad 170 C as surfactant and were formed by applying acoustic energy from a waterbath sonicator.
In turn, `FC1(F)C(F)(F)C(F)(F)C(F)(F)C1(F)F` [perfluorocyclopentane] yielded a grayscale intensity of 158.9 units.

Another data set can be described thus: Backscatter persistence and intensity of 2% mixtures in saline, 1000 mL water at 37° C., Hewlett-Packard 77020A. Conditions: 2% in saline, 1.0 mL in 1000 mL water at 37° C.; saline+air set as 1. The procedure: The following emulsions were formulated and tested according to methods described in Example 18.
All solutions were made as a 2% solution in saline. A volume of 0.1 cc of each chemical was comminuted with 5 cc saline through a 3-way stopcock for 25 passes. A volume of 1.0 mL of the mixture was immediately injected through a 1.2 μm filter into a stirring water bath containing 1000 mL water at 37° C. The resulting backscatter was then recorded with the use of a Hewlett-Packard 77020A Ultrasound System at […].
Turning to `ClCCCl` [1,2, Dichloroethane, reference compound], the “Ratio of Persistence” value was determined as 6.

As to `FC(F)(F)C(Cl)Br` (stereo not drawn) [Halothane], the “Ratio of Persistence” value was 6.

Take `CCCCCCCCC` [Nonane]: the “Ratio of Persistence” value is on record as 9.

Take `FC1(F)C(F)(F)C(F)(F)C2(F)C(F)(F)C(F)(F)C(F)(F)C(F)(F)C2(F)C1(F)F` (stereo not drawn) [Perfluorodecalin]: the “Ratio of Persistence” value was 9.

The data set is the same for the next values; noted with them: backscatter intensity qualitatively ranked from 0 to 5.
`ClCCCl` [1,2, Dichloroethane, reference compound]: the “Ratio of Intensity” value stood at 0.25.

On to `FC(F)(F)C(Cl)Br` (stereo not drawn) [Halothane], for which the “Ratio of Intensity” value is 0.25.

Take `CCCCCCCCC` [Nonane]: the “Ratio of Intensity” value was found to be 0.5.

For `FC1(F)C(F)(F)C(F)(F)C2(F)C(F)(F)C(F)(F)C(F)(F)C(F)(F)C2(F)C1(F)F` (stereo not drawn) [Perfluorodecalin], the “Ratio of Intensity” value is recorded as 2.0.

Test in the next data set: not given
The note with it: Chemical List of low boiling liquids, Example 45; cited from earlier work.
Consider `O=S(=O)(Cl)C(F)(F)F` [Methane sulfonyl chloride, trifluoro], for which the “Boiling Point” value is 31.6 degrees Celcius.

As to `O=NC(F)(F)Br` [Methane, bromo difluoro nitroso], the “Boiling Point” value was −12.0 degrees Celcius.

Turning to `FCBr` [Methane, bromo fluoro], the “Boiling Point” value is 19.0 degrees Celcius.

For `FC(Cl)Br` (stereo not drawn) [Methane, bromo-chloro-fluoro], the “Boiling Point” value is given as 36.0 degrees Celcius.

For the compound `FC(F)(F)Br` [Methane, bromo-trifluoro], the “Boiling Point” value is −57.9 degrees Celcius.

Take `O=[N+]([O-])C(F)(F)Cl` [Methane, chloro difluoro nitro]: the “Boiling Point” value is given as 25.0 degrees Celcius.

As for `FCCl` [Methane, chloro fluoro], the “Boiling Point” value was −9.1 degrees Celcius.

In the case of `FC(F)(F)Cl` [Methane, chloro trifluoro], the “Boiling Point” value is recorded as −81.4 degrees Celcius.

Regarding `FC(F)Cl` [Methane, chloro-difluoro], the “Boiling Point” value is listed as −40.8 degrees Celcius.

With `FC(F)(Br)Br` [Methane, dibromo difluoro], the “Boiling Point” value is 24.5 degrees Celcius.

For the compound `FC(F)(Cl)Cl` [Methane, dichloro difluoro], the “Boiling Point” value is on record as −29.8 degrees Celcius.

For the compound `FC(Cl)Cl` [Methane, dichloro-fluoro], the “Boiling Point” value was 9.0 degrees Celcius.

As to `ClCCl` [Methane, dichloro], the “Boiling Point” value is on record as 40.0 degrees Celcius.

Consider `FCF` [Methane, difluoro], for which the “Boiling Point” value was −51.6 degrees Celcius.

Take `[SiH3]C[SiH3]` [Methane, disilano]: the “Boiling Point” value is on record as 14.7 degrees Celcius.

As to `CI` [Methane, iodo-], the “Boiling Point” value is listed as 42.4 degrees Celcius.

As to `FC(F)(F)I` [Methane, iodo-trifluoro], the “Boiling Point” value is −22.5 degrees Celcius.

For `O=[N+]([O-])C(F)(F)F` [Methane, nitro-trifluoro], the “Boiling Point” value was −31.1 degrees Celcius.

`O=NC(F)(F)F` [Methane, nitroso-trifluoro]: the “Boiling Point” value is recorded as −84.0 degrees Celcius.

Turning to `FC(F)(F)F` [Methane, tetrafluoro], the “Boiling Point” value is −129.0 degrees Celcius.

Regarding `FC(Cl)(Cl)Cl` [Methane, trichlorofluoro], the “Boiling Point” value was 23.7 degrees Celcius.

For the compound `C` [Methane], the “Boiling Point” value is listed as −164.0 degrees Celcius.

On to `FC(F)(F)SCl` [Methanesulfenylchloride, trifluoro], for which the “Boiling Point” value is recorded as −0.7 degrees Celcius.

Consider `CS` [Methanethiol], for which the “Boiling Point” value is listed as 62 degrees Celcius.

`COC` [Methyl ether]: the “Boiling Point” value was −25.0 degrees Celcius.

As for `COC(C)C` [Methyl isopropyl ether], the “Boiling Point” value is recorded as 32.5 degrees Celcius.

Consider `CON=O` [Methyl nitrite], for which the “Boiling Point” value is −12.0 degrees Celcius.

As for `[Ne]` [Neon], the “Boiling Point” value is −246.0 degrees Celcius.

As for `CC(C)(C)C` [Neopentane], the “Boiling Point” value is 9.5 degrees Celcius.

In the case of `[N]=O` [Nitric oxide], the “Boiling Point” value is −151.6 degrees Celcius.

With `N#N` [Nitrogen (N2)], the “Boiling Point” value is reported as −196.0 degrees Celcius.

For the compound `O=NCl` [Nitrosyl chloride], the “Boiling Point” value was −5.5 degrees Celcius.

On to `[N-]=[N+]=O` [Nitrous oxide], for which the “Boiling Point” value is −88.5 degrees Celcius.

In the case of `O=C(O)c1c(Cl)c(Cl)c(Cl)c(Cl)c1C(=O)O` [Phthalic acid, tetrachloro], the “Boiling Point” value is 2.0 degrees Celcius.

Regarding `CC1CCC(C)C(C)N1` (stereo not drawn) [Piperidine,2,3,6-trimethyl], the “Boiling Point” value is on record as 36.0 degrees Celcius.

For `O=[N+]([O-])C(F)(F)C(F)(F)C(F)(F)F` [Propane, heptafluoro-1-nitro], the “Boiling Point” value is on record as 25.0 degrees Celcius.

For the compound `O=NC(F)(F)C(F)(F)C(F)(F)F` [Propane, heptafluoro-1-nitrose], the “Boiling Point” value was −12.0 degrees Celcius.

For `FC(F)(F)C(F)(F)C(F)(F)F` [Propane, perfluoro], the “Boiling Point” value is −36.0 degrees Celcius.

For the compound `FC(F)=C(F)C(F)(F)F` [Propylene, perfluoro], the “Boiling Point” value is reported as −29.4 degrees Celcius.

For `C#CC` [Propyne], the “Boiling Point” value was −23.2 degrees Celcius.

For the compound `N#CC(F)(F)F` [Trifluoroacetonitrile], the “Boiling Point” value is −64.0 degrees Celcius.

Regarding `FC(F)(F)SC(F)(F)F` [Trifluoromethyl sulfide], the “Boiling Point” value was −22.2 degrees Celcius.

With `CN(C)C` [Trimethyl amine], the “Boiling Point” value is on record as 2.9 degrees Celcius.

With `[F][W]([F])([F])([F])([F])[F]` [Tungsten hexafluoride], the “Boiling Point” value is on record as 17.5 degrees Celcius.

Regarding `C#CC=C` [Vinyl acetylene], the “Boiling Point” value is recorded as 5.1 degrees Celcius.

Consider `C=COC=C` [Vinyl ether], for which the “Boiling Point” value is 28.0 degrees Celcius.

For the compound `[Xe]` [Xenon], the “Boiling Point” value is given as −108.0 degrees Celcius.

As for `CP(C)NP(C)C` [bis(Dimethyl phosphino) amine], the “Boiling Point” value is 33.5 degrees Celcius.

The same data set, now with this note: boiling point under standard pressure conditions; chemical list arranged by total atoms; cited from earlier work.
Turning to `O=C(C(F)(F)F)C(F)(F)[N+](=O)[O-]` [Pentafluoronitroacetone], the “Boiling Point” value is 32.6 degrees Celcius.

For `F[C](F)(F)[Ge]([C](F)(F)F)([C](F)(F)F)[C](F)(F)F` [Tetrakis(trifluoromethyl) germane], the “Boiling Point” value is listed as 31.7 degrees Celcius.

Turning to `F[C](F)(F)[Ge]([Cl])([C](F)(F)F)[C](F)(F)F` [Tris-(trifluoromethyl)-germaniumchloride], the “Boiling Point” value was 37 degrees Celcius.

Turning to `O=C(C(F)(F)F)C(F)(F)Br` [bromo-pentafluoro-acetone], the “Boiling Point” value is given as 31 degrees Celcius.

Regarding `CCCCB(F)F` [butyl-difluoro-borane], the “Boiling Point” value is listed as 35 degrees Celcius.

Consider `FC(F)(F)C(F)(F)C(F)(F)C(F)(F)F` [decafluoro-butane], for which the “Boiling Point” value was −1.7 degrees Celcius.

As for `FC(F)I` [difluoro-iodo-methane], the “Boiling Point” value is 21.6 degrees Celcius.

`CSC` [dimethyl sulfide]: the “Boiling Point” value is given as 36 degrees Celcius.

In the case of `CCC1CC1` [ethyl-cyclopropane], the “Boiling Point” value is 35.8 degrees Celcius.

Consider `CCN(C)C` [ethyl-dimethyl-amine], for which the “Boiling Point” value was 36.4 degrees Celcius.

In the case of `CCOC` [ethyl-methyl ether], the “Boiling Point” value is 6.6 degrees Celcius.

`CC[Si](F)(F)F` [ethyl-trifluoro-silane]: the “Boiling Point” value was −4.4 degrees Celcius.

Take `C=COCC` [ethyl-vinyl ether]: the “Boiling Point” value was 35 degrees Celcius.

Consider `NC=O` [formamide], for which the “Boiling Point” value was 2.18 degrees Celcius.

With `CC(C)N` [isopropylamine], the “Boiling Point” value is reported as 31.7 degrees Celcius.

Regarding `CC1CCC1` [methyl-cyclobutane], the “Boiling Point” value is 36 degrees Celcius.

`CC1CC1` [methyl-cyclopropane]: the “Boiling Point” value is reported as 0.7 degrees Celcius.

As for `FC(F)(F)C(F)(F)C(F)(C(F)(F)F)C(F)(F)F` [nonafluoro-2-trifluoromethyl-butane], the “Boiling Point” value is 30.12 degrees Celcius.

Regarding `C1CC12CC2` [spiropentane], the “Boiling Point” value was 35 degrees Celcius.

Turning to `CCC[Si](F)(F)F` [trifluoro-propyl-silane], the “Boiling Point” value is listed as 25 degrees Celcius.

Staying with this data set, now noted: chemicals of Example 52; cited from earlier work.
As for `ClCCCl` [1,2, Dichloroethane, reference compound], the B.P. is 83 °C.

For `FC(F)(F)C(Cl)Br` (stereo not drawn) [Halothane], the B.P. was 50 °C.

For `CCCCCCCCC` [Nonane], the B.P. is 151 °C.

Turning to `FC1(F)C(F)(F)C(F)(F)C2(F)C(F)(F)C(F)(F)C(F)(F)C(F)(F)C2(F)C1(F)F` (stereo not drawn) [Perfluorodecalin], the B.P. was 141 °C.

The data set is the same for the next values; noted with them: cited from earlier work.
For the compound `FC1(F)C(F)(F)C(F)(F)C(F)(F)C1(F)F` [perfluorocyclopentane], the Boiling Point was 22.5 °C and 22 °C.

The same data set, now with this note: dispersed phase of emulsions of Example 18; cited from earlier work.
Turning to `FC(F)(F)C(F)(F)C(F)(F)C(F)(F)C(F)(F)C(F)(F)C(F)(F)C(F)(F)F` [Perfluorooctane, reference compound], the “Boiling Point” value is 98 °C.

Test in a further data set: not given
Conditions: at 25° C.; cited from earlier work.
Consider `ClCCCl` [1,2, Dichloroethane, reference compound], for which the “Vapor Pressure” value was 87 mmHg at 25 °C.
